IC50 and inhibition data for 28 molecules are collected here from patent US6875760B2 (Novo Nordisk A/S, priority 1999, dated 2005).

pIC50: −log10 of the molar value.

T1 sequence (P47871 26-477): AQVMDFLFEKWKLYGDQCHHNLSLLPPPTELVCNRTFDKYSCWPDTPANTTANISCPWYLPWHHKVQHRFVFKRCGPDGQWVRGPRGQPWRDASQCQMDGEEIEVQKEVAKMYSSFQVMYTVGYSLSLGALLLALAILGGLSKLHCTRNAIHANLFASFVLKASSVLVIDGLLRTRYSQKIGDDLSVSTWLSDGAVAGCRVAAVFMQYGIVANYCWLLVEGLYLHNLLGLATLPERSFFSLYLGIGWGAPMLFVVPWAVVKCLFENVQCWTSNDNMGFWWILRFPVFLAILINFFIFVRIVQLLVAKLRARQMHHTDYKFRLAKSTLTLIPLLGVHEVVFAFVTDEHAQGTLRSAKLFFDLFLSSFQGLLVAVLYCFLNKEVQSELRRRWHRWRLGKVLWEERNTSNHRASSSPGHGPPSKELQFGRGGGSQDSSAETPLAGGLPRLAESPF
T2 sequence (P47871 26-477): as above

One assay addresses T1, human glucagon receptor (Homo sapiens, UniProt P47871).
T1 construct: expressed in transfected cells; host or cells: BHK (baby hamster kidney) cells
Description: Glucagon Binding Assay (III). To be noted: BHK cell membranes, WGA SPA beads, 125I-glucagon; read-out: Glu Bd Assay (III) IC50. In a few lines: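 Non-specific binding was set with 500 nM glucagon in this SPA-type binding assay using WGA beads. The receptor source was a membrane preparation, kept on ice or at 4 °C, from BHK cells transfected with the human receptor. Scintillation counts were taken after 4 hours of shaking and 8–48 hours of settling.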
Usually pIC50 stands for the negative decadic logarithm of the IC50, by convention in mol/L. For the molecule `O=C(Nc1nn[nH]n1)c1ccc(CN(C(=O)c2cc(-c3ccc(Cl)cc3)cs2)c2ccc(C3CCCCC3)cc2)cc1` [Example 565, 4-(4-Chlorophenyl)thiophene-2-carboxylic acid (4-cyclohexylphenyl)-[4-(2H-tetrazol-5-ylcarbamoyl)benzyl]amide], the pIC50 was 6.02.

Consider `CC(C)(C)[C@H]1CC[C@H](N(Cc2ccc(C(=O)NCCC(=O)O)cc2)C(=O)Nc2cc(-c3ccccc3)n[nH]2)CC1` [Example 253, 3-{4-[1-(4-trans-tert-Butylcyclohexyl)-3-(5-Phenyl-2H-pyrazol-3-yl)ureidomethyl]benzoylamino}propionic acid], for which the negative logarithm of the IC50 (pIC50) is 5.93.

For `CC(C)(C)C1CCC(N(Cc2ccc(C(=O)Nc3nn[nH]n3)cc2)C(=O)Cc2ccc(OC(F)(F)F)cc2)CC1` (stereo not shown) [Example 502, 4-({(4-tert-Butylcyclohexyl)-[2-(4-trifluoromethoxyphenyl)acetyl]amino}methyl)-N-(2H-tetrazol-5-yl)benzamide], the pIC50 was 7.55.

Consider `CCCCN1C(=O)c2ccc(NC(=O)N(Cc3ccc(C(=O)NCCC(=O)O)cc3)c3ccc(C4CCCCC4)cc3)cc2C1=O` [Example 635, 3-{4-[3-(N′-Butylphthalimid-4-yl)-1-(4-cyclohexylphenyl)ureidomethyl]benzoylamino}propionic acid], for which the pIC50 is 7.74.

Regarding `CC(C)Cc1ccc(NC(=O)N(Cc2ccc(C(=O)NCCC(=O)O)cc2)C2CCC(C(C)(C)C)CC2)cc1` (stereo not shown) [Example 62, 3-{4-[1-(4-tert-Butylcyclohexyl)-3-(4-isobutylphenyl)ureidomethyl]benzoylamino}propionic acid], the pIC50 was 7.41.

Take `O=C(O)CCNC(=O)c1ccc(CN(C(=O)Oc2cccc(OC(F)(F)F)c2)c2ccc(C3CCCCC3)cc2)cc1` [Example 421, 3-(4-{[(4-Cyclohexylphenyl)-(3-trifluoromethoxyphenoxycarbonyl)amino]methyl}benzoylamino)propionic acid]: the pIC50 was 6.28.

With `O=C(Nc1nn[nH]n1)c1ccc(CN(C(=O)Nc2cc(Br)cc(C(F)(F)F)c2)c2ccc(C3CCCCC3)cc2)cc1` [Example 264, 4-[3-(3-Bromo-5-trifluoromethylphenyl)-1-(4-cyclohexylphenyl)ureidomethyl]-N-(2H-tetrazol-5-yl)benzamide], the negative logarithm of the IC50 (pIC50) is 8.05.

With `CC(C)(C)[C@H]1CC[C@H](N(Cc2ccc(C(=O)Nc3nn[nH]n3)cc2)C(=O)Nc2ccc(OCC3CC3)cc2C(F)(F)F)CC1` [Example 334, 4-[1-(trans-4-tert-Butylcyclohexyl)-3-(4-cyclopropylmethoxy-2-trifluoromethylphenyl)ureidomethyl]-N-(2H-tetrazol-5-yl)benzamide], the negative logarithm of the IC50 (pIC50) was 6.54.

On to `CC(O)c1cccc(NC(=O)N(Cc2ccc(C(=O)Nc3nn[nH]n3)cc2)c2ccc(C(C)(C)C)cc2)c1` (stereo not shown) [Example 309, 4-{1-(4-tert-Butylphenyl)-3-[3-(1-hydroxyethyl)phenyl]ureidomethyl}-N-(2H-tetrazol-5-yl)benzamide], for which the pIC50 was 6.25.

In the case of `CC(C)N1C(=O)c2ccc(NC(=O)N(Cc3ccc(C(=O)Nc4nn[nH]n4)cc3)c3ccc(C(C)(C)C)cc3)cc2C1=O` [Example 628, 4-[1-(4-tert-Butyl-phenyl)-3-(N′-isopropylphthalimid-4-yl)ureidomethyl]-N-(2H-tetrazol-5-yl)benzamide], the negative-log IC50 (pIC50) is 7.46.

On to `CC(C)(C)C1CCC(N(Cc2ccc(C(=O)Nc3nn[nH]n3)cc2)C(=O)Cc2ccc(S(C)(=O)=O)cc2)CC1` (stereo not shown) [Example 517, 4-({(4-tert-Butylcyclohexyl)-[2-(4-methylsulfonylphenyl)acetyl]amino}methyl)-N-(2H-tetrazol-5-yl)benzamide], for which the negative-log IC50 (pIC50) is 6.21.

Turning to `O=C(Nc1nn[nH]n1)c1ccc(CN(C(=O)/C=C/c2c(Cl)cccc2Cl)c2ccc(C3CCCCC3)cc2)cc1` [Example 480, 4-({(4-Cyclohexylphenyl)-[3-(2,6-dichlorophenyl)acryloyl]amino}methyl)-N-(2H-tetrazol-5-yl)benzamide], the negative-log IC50 (pIC50) was 6.56.

In the case of `O=C(O)CCNC(=O)c1ccc(CN(C(=O)c2ccc(Cc3ccccc3)cc2)c2ccc(C3CCCCC3)cc2)cc1` [Example 521, 3-(4-{[(4-Benzylbenzoyl)-(4-cyclohexylphenyl)amino]methyl}benzoylamino)propionic acid], the pIC50 is 5.47.

With `CCN(CCC(=O)O)C(=O)c1ccc(CN(C(=O)Nc2ccc(OC(F)(F)F)cc2)C2CCC(C(C)(C)C)CC2)cc1` (stereo not shown) [Example 91, 3-({4-[1-(4-tert-Butylcyclohexyl)-3-(4-trifluoromethoxyphenyl)ureidomethyl]benzoyl}ethylamino)propionic acid], the negative-log IC50 (pIC50) is 5.55.

Take `O=C(O)CCNC(=O)c1ccc(CN(C(=O)c2cc3ccccc3s2)C2CCC3(CCCCC3)CC2)cc1` [Example 619, 3-(4-{[(Benzo[b]thiophene-2-carbonyl)spiro[5.5]undec-3-yl-amino]methyl}benzoylamino)propionic acid]: the negative logarithm of the IC50 (pIC50) was 6.32.

As for `CC(C)(C)C1CCC(N(Cc2ccc(C(=O)Nc3nn[nH]n3)cc2)C(=O)Nc2cccc(C#N)c2)CC1` (stereo not shown) [Example 274, 4-[1-(4-tert-Butylcyclohexyl)-3-(3-cyanophenyl)ureidomethyl]-N-(2H-tetrazol-5-yl)benzamide], the pIC50 was 7.03.

On to `CC(C)(C)C1CCC(N(Cc2ccc(C(=O)Nc3nn[nH]n3)cc2)C(=O)CCC(=O)c2ccccc2)CC1` (stereo not shown) [Example 541, 4-({(4-tert-Butylcyclohexyl)-(4-oxo-4-phenylbutyryl)amino]methyl}-N-(2H-tetrazol-5-yl)benzamide], for which the pIC50 is 6.09.

Consider `CN(C)S(=O)(=O)c1cccc(NC(=O)N(Cc2ccc(C(=O)Nc3nn[nH]n3)cc2)c2ccc(C(C)(C)C)cc2)c1` [Example 276, 4-[1-(4-tert-Butylphenyl)-3-(3-dimethylsulfamoylphenyl)ureidomethyl]-N-(2H-tetrazol-5-yl)benzamide], for which the pIC50 was 6.50.

`O=C(O)CCNC(=O)c1ccc(CN(CC(c2ccccc2)c2ccccc2)C(=O)Cc2cccc(OC(F)(F)F)c2)cc1` [Example 556]: the pIC50 is 6.18.

Consider `O=C(Nc1nn[nH]n1)c1ccc(CN(C(=O)Nc2ccc(Cl)c(Cl)c2)c2ccc(C3=CCCCC3)cc2)cc1` [Example 325, 4-[1-(4-Cyclohex-1-enylphenyl)-3-(3,4-dichlorophenyl)ureidomethyl]-N-(2H-tetrazol-5-yl)benzamide], for which the negative logarithm of the IC50 (pIC50) is 7.60.

Take `CC(C)(C)C1CCC(N(Cc2ccc(C(=O)NCCC(=O)O)cc2)C(=O)NCCc2ccccc2)CC1` (stereo not shown) [Example 27, 3-{4-[1-(4-tert-Butylcyclohexyl)-3-phenethylureidomethyl]benzoylamino}propionic acid]: the pIC50 is 5.70.

On to `O=C(Nc1nn[nH]n1)c1ccc(CN(C(=O)Nc2cccc(Br)c2)c2ccc(C3=CCCCC3)cc2)cc1` [Example 349, 4-[3-(3-Bromophenyl)-1-(4-cyclohex-1-enylphenyl)ureidomethyl]-N-(2H-tetrazol-5-yl)benzamide], for which the negative-log IC50 (pIC50) was 8.22.

Consider `O=C(Nc1nn[nH]n1)c1ccc(CN(C(=O)/C=C/c2ccccc2Br)c2ccc(C3CCCCC3)cc2)cc1` [Example 501, 4-{[[3-(2-Bromophenyl)acryloyl]-(4-cyclohexylphenyl)amino]methyl}-N-(2H-tetrazol-5-yl)benzamide], for which the pIC50 is 6.66.

Another assay addresses T2, cloned human glucagon receptor (Homo sapiens, UniProt P47871).
T2 construct: expressed in transfected cells; plasma membrane preparation
Description: Glucagon Binding Assay (II). To be noted: plasma membranes of BHK cells expressing the receptor; read-out: Glu Bd Assay (II) IC50. The method, then: Binding of compounds to the glucagon receptor was determined in a competition binding assay using the cloned human glucagon receptor.
The receptor inserted in the pLJ6′ expression vector using EcoRI/SSt1 restriction sites (Lok et al.) was expressed in a baby hamster kidney cell line (A3 BHK 570-25).
The homogenate was resuspended and centrifuged again. The final precipitate containing the plasma membranes was suspended in buffer and stored at −80° C. until use.
Binding assays were carried out in duplicate in polypropylene tubes or microtiter plates. The buffer used in this assay was 50 mM HEPES pH 7.4 containing 5 mM EGTA, 5 mM MgCl2 and 0.005% Tween 20. Sample (glucagon (Bachem CA) or test compounds) was added to each tube or well. Tracer (˜25.000 cpm) was diluted in buffer and was added to each tube or well. 0.5 mg freshly thawed plasma membrane protein diluted in buffer was then added in aliquots to each tube or well. Tubes or plates were incubated at 37° C. for 1 hour. Non-specific binding was determined with 10^−7 M of glucagon. Bound tracer and unbound tracer were then separated by vacuum filtration. The tubes or wells were washed twice with 0.01% Triton X-100 buffer. Scintillation fluid was added to the plates and radioactivity was quantified using a scintillation counter.
In the case of `C[C@@H](NC(=O)N(Cc1ccc(C(=O)Nc2nn[nH]n2)cc1)c1ccc(C2CCCCC2)cc1)c1ccccc1` [Example 598, 4-[1-(4-Cyclohexylphenyl)-3-((1R)-1-phenylethyl)ureidomethyl]-N-(2H-tetrazol-5-yl)benzamide], the pIC50 was 6.68.

Staying with this assay, now noted: screened at 1 μM; library compounds; read-out: displacement of the glucagon tracer when screened at 1 μM concentration in the glucagon binding assay II.
Consider `O=C(O)CCNC(=O)c1ccc(CN(Cc2ccccc2OC(F)(F)F)C(=O)Nc2ccc3ccccc3c2)s1` [Example 124, 3-{5-[1-(2-Trifluoromethoxybenzyl)-3-naphthalene-2-ylureidomethyl]thiophene-2-carbonylamino)propionic acid], for which the inhibition at 1 µM was greater than 50%.

In the case of `COc1ccc(CN(Cc2cccc(Oc3cccc(C(F)(F)F)c3)c2)Cc2ccc(C(=O)NCCC(=O)O)s2)cc1OC` [Example 152, 3-(5-{[(3,4-Dimethoxybenzyl)-(3-[3-trifluoromethylphenoxy]benzyl)amino]methyl}thiophene-2-carbonylamino)propionic acid], the inhibition at 1 µM is greater than 50%.

In the case of `COc1cc(CN(Cc2ccc(C(=O)NCCC(=O)O)cc2)C(=O)Nc2ccc(C)cc2)ccc1O` [Example 121, 3-{4-[1-(4-Hydroxy-3-methoxybenzyl)-3-(4-methylphenyl)ureidomethyl]benzoylamino)propionic acid], the inhibition at 1 µM is greater than 50%.

On to `CC(C)(C)C1CCC(N(Cc2ccc(OCCCC(=O)O)cc2)C(=O)Nc2ccc(Cl)c(C(F)(F)F)c2)CC1` (stereo not shown) [Example 225, 4-{4-[1-(4-tert-Butylcyclohexyl)-3-(4-chloro-3-trifluoromethylphenyl)ureidomethyl]phenoxy}butyric acid], for which the inhibition at 1 µM was greater than 50%.
